Data published in PubChem BioAssay (NCI).
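Protocol summary: plate cells (96-well), add compound at 5 concentrations, incubate 48 h, interpolate endpoints linearly. Definition used: TGI = concentration required for complete inhibition of growth.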

The compounds below were run on NCI-H226 lung (assay: inhibition of tumour cell growth, NCI panel, 48 h).

Point of comparison: `O=C1N=C2Sc3ccc4ccccc4c3N2C1=O`, TGI 57 µM. Against it:
- CN(C)C(=S)/N=c1\sn(C)/c(=N\C(=S)N(C)C)n1C — higher, > 100 µM
- COC(=O)C1CCCC2(C1)OCCO2 (centres undefined) — higher, > 100 µM
- COC(=O)/C(C#N)=C1\N=NNN1c1ccc(OC)cc1 — higher, > 100 µM
- COC(=O)/C(=C/c1ccc(OC)cc1)C(C(=O)O)=C1CCCC1 — higher, > 100 µM
- N#C/C(=C\c1ccc2ccccc2c1)C(=O)c1ccccc1 — higher, > 100 µM

Each compound was assayed on NCI-H23 lung (assay: inhibition of tumour cell growth, NCI panel, 48 h).

Point of comparison: `O=C1N=C2Sc3ccc4ccccc4c3N2C1=O`, TGI 53.3 µM. Against it:
- O=C(CC1C(=O)Nc2ccccc2S1=O)Nc1cc(Cl)ccc1Cl (centres undefined) — higher, > 100 µM
- CN(C)C(=S)/N=c1\sn(C)/c(=N\C(=S)N(C)C)n1C — higher, > 100 µM
- COC(=O)C1CCCC2(C1)OCCO2 (centres undefined) — higher, > 100 µM
- COC(=O)/C(C#N)=C1\N=NNN1c1ccc(OC)cc1 — higher, > 100 µM
- COC(=O)/C(=C/c1ccc(OC)cc1)C(C(=O)O)=C1CCCC1 — higher, > 100 µM
- N#C/C(=C\c1ccc2ccccc2c1)C(=O)c1ccccc1 — higher, > 74.4 µM

Each compound was assayed on NCI-H460 lung (assay: inhibition of tumour cell growth, NCI panel, 48 h).

Point of comparison: `O=C1N=C2Sc3ccc4ccccc4c3N2C1=O`, TGI 70.2 µM. Against it:
- O=C(CC1C(=O)Nc2ccccc2S1=O)Nc1cc(Cl)ccc1Cl (centres undefined) — higher, > 100 µM
- CN(C)C(=S)/N=c1\sn(C)/c(=N\C(=S)N(C)C)n1C — higher, > 100 µM
- COC(=O)C1CCCC2(C1)OCCO2 (centres undefined) — higher, > 100 µM
- COC(=O)/C(C#N)=C1\N=NNN1c1ccc(OC)cc1 — higher, > 100 µM
- COC(=O)/C(=C/c1ccc(OC)cc1)C(C(=O)O)=C1CCCC1 — higher, > 100 µM
- N#C/C(=C\c1ccc2ccccc2c1)C(=O)c1ccccc1 — higher, > 100 µM

Each compound was assayed on NCI-H522 lung (assay: inhibition of tumour cell growth, NCI panel, 48 h).

`O=C(CC1C(=O)Nc2ccccc2S1=O)Nc1cc(Cl)ccc1Cl` (centres undefined) and `N#C/C(=C\c1ccc2ccccc2c1)C(=O)c1ccccc1` cannot be ordered by TGI: > 100 µM for the first, > 100 µM for the second.

`CN(C)C(=S)/N=c1\sn(C)/c(=N\C(=S)N(C)C)n1C` and `COC(=O)/C(C#N)=C1\N=NNN1c1ccc(OC)cc1` cannot be ordered by TGI: > 100 µM for the first, > 100 µM for the second.

`COC(=O)C1CCCC2(C1)OCCO2` (centres undefined) and `COC(=O)/C(=C/c1ccc(OC)cc1)C(C(=O)O)=C1CCCC1` cannot be ordered by TGI: > 100 µM for the first, > 100 µM for the second.

These compounds were tested on OVCAR-3 ovarian (assay: inhibition of tumour cell growth, NCI panel, 48 h).

Point of comparison: `O=C1N=C2Sc3ccc4ccccc4c3N2C1=O`, TGI 37.1 µM. Against it:
- O=C(CC1C(=O)Nc2ccccc2S1=O)Nc1cc(Cl)ccc1Cl (centres undefined) — higher, > 100 µM
- CN(C)C(=S)/N=c1\sn(C)/c(=N\C(=S)N(C)C)n1C — higher, > 100 µM
- COC(=O)C1CCCC2(C1)OCCO2 (centres undefined) — higher, > 100 µM
- COC(=O)/C(C#N)=C1\N=NNN1c1ccc(OC)cc1 — higher, > 100 µM
- N#C/C(=C\c1ccc2ccccc2c1)C(=O)c1ccccc1 — higher, > 94.4 µM

These compounds were tested on OVCAR-4 ovarian (assay: inhibition of tumour cell growth, NCI panel, 48 h).

Point of comparison: `O=C1N=C2Sc3ccc4ccccc4c3N2C1=O`, TGI 32.7 µM. Against it:
- CN(C)C(=S)/N=c1\sn(C)/c(=N\C(=S)N(C)C)n1C — higher, > 100 µM
- COC(=O)C1CCCC2(C1)OCCO2 (centres undefined) — higher, > 100 µM
- COC(=O)/C(=C/c1ccc(OC)cc1)C(C(=O)O)=C1CCCC1 — higher, > 100 µM
- N#C/C(=C\c1ccc2ccccc2c1)C(=O)c1ccccc1 — higher, > 100 µM

These compounds were tested on OVCAR-5 ovarian (assay: inhibition of tumour cell growth, NCI panel, 48 h).

`O=C(CC1C(=O)Nc2ccccc2S1=O)Nc1cc(Cl)ccc1Cl` (centres undefined) and `O=C1N=C2Sc3ccc4ccccc4c3N2C1=O` cannot be ordered by TGI: > 100 µM for the first, > 100 µM for the second.

`CN(C)C(=S)/N=c1\sn(C)/c(=N\C(=S)N(C)C)n1C` and `COC(=O)/C(=C/c1ccc(OC)cc1)C(C(=O)O)=C1CCCC1` cannot be ordered by TGI: > 100 µM for the first, > 100 µM for the second.

`COC(=O)C1CCCC2(C1)OCCO2` (centres undefined) and `N#C/C(=C\c1ccc2ccccc2c1)C(=O)c1ccccc1` cannot be ordered by TGI: > 100 µM for the first, > 100 µM for the second.

These compounds were tested on OVCAR-8 ovarian (assay: inhibition of tumour cell growth, NCI panel, 48 h).

`O=C(CC1C(=O)Nc2ccccc2S1=O)Nc1cc(Cl)ccc1Cl` (centres undefined) and `N#C/C(=C\c1ccc2ccccc2c1)C(=O)c1ccccc1` cannot be ordered by TGI: > 100 µM for the first, > 46.4 µM for the second.

`CN(C)C(=S)/N=c1\sn(C)/c(=N\C(=S)N(C)C)n1C` and `COC(=O)/C(C#N)=C1\N=NNN1c1ccc(OC)cc1` cannot be ordered by TGI: > 100 µM for the first, > 100 µM for the second.

`COC(=O)C1CCCC2(C1)OCCO2` (centres undefined) and `COC(=O)/C(=C/c1ccc(OC)cc1)C(C(=O)O)=C1CCCC1` cannot be ordered by TGI: > 100 µM for the first, > 100 µM for the second.
